Assay results: patent US7071220B2, “N-substituted benzothiophenesulfonamide derivatives” (Toa Eiyo Ltd., priority 2000, dated 2006)
Changes are numbered by the printed parent chain. Where a name gives a salt, the structure may show the parent alone. Read-outs that look alike come from different tables or passages of the source.

Legend:
[1] = molecular target: T1, Simian chymase (Macaca mulatta, UniProt F6SAJ2); assay: Measurement of inhibitory activity of simian chymase (Ang I substrate, His-Leu/OPT fluorescence); format: biochemical, rhesus monkey; conditions: chymase from heart of rhesus monkey; 120 minutes at 37° C.; read-out: Simian chymase IC50 value
T1 sequence (F6SAJ2 22-247 limits assumed): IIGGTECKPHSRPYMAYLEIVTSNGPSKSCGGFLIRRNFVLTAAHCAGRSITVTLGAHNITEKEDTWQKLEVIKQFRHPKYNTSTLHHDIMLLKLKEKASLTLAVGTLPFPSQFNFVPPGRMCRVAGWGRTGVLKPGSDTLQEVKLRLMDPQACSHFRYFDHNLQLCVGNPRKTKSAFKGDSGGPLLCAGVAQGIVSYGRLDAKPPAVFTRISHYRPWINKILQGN
Protocol: (§5) That is, the activity was measured by reacting free His-Leu formed together with Ang II with o-phthalaldehyde (hereinafter, abbreviated as OPT) to prepare a fluorescent derivative and determining the amount quantitatively by means of a fluorophotometer.
(§6) First, 3.6 μmol of each test compound was weighed in a test tube and was dissolved into 3 mL of DMSO. The DMSO solution was diluted 1000-fold with 20 mmol/L Tris-hydrochloric acid buffer solution (pH 8.0) containing 0.01% Triton X-100 and 0.5 mol/L potassium chloride to prepare 1.2×10^−6 mol/L solution, which was successively diluted with the buffer solution to prepare test sample solutions having concentrations of 1.2×10^−6 mol/L to 1.2×10^−9 mol/L. To 500 μL of the test sample solution of each concentration or buffer solution was added 50 μL of an enzyme solution, followed by 10 minutes of pre-incubation at 37° C. Then, 50 μL of 0.1 mmol/L Ang I solution was added to initiate a reaction. Human angiotensin I (manufactured by SIGMA) was employed as Ang I. The enzyme solution to be used for the reaction was adjusted so as to hydrolyze about 60% of substrate under the conditions, and the reaction wherein a buffer solution containing no enzyme was carried out as a blind test. […] Thereafter, the reaction mixture was centrifuged at 4° C. at 3,000 rpm for 10 minutes and 2 mL of 2 mol/L sodium hydroxide and 1 mL of methanol were added to 1 mL of the resulting supernatant. […] The measurement was repeated twice for each sample and blind test. The fluorescence intensity obtained by subtracting the average value at blind test from the average value thereof was determined as chymase activity.
(§7) In this regard, an enzymatic reaction using a buffer solution instead of the test sample solution was carried out as a control, and inhibitory ratio of chymase activity was determined as percentage by dividing the difference of subtraction of the activity at the addition of the test compound from the chymase activity at the control by the chymase activity at the control.

[2] = molecular target: T2, Chymotrypsin (Bos taurus, UniProt P00766); assay: Measurement of chymotrypsin inhibitory activity (Suc-Ala-Ala-Pro-Phe-pNA); format: biochemical; conditions: Chymotrypsin Type I-S from bovine pancreas; 30 minutes at 37° C.
T2 construct: Chymotrypsin Type I-S derived from bovine pancreas; purchased SIGMA Type I-S; host or cells: bovine pancreas
Protocol: (§1) Measurement of Cathepsin G Inhibitory Activity and Chymotrypsin Inhibitory Activity
(§2) Each activity of cathepsin G or chymotrypsin was measured by determining the amount of free p-nitroaniline quantitatively using a synthetic substrate that is colorless and yields colored product upon hydrolysis, by means of a spectrophotometer. Chymotrypsin Type I-S derived from bovine pancreas was purchased from SIGMA. As cathepsin G, the product of Elastin Products Company, Inc. derived from human purulent sputum was used. Suc-Ala-Ala-Pro-Phe-pNA (manufactured by SIGMA) was used as the synthetic substrate. An inhibitory effect of a compound on each enzyme was determined by the following method.
(§3) Each test compound (5 μmol) was weighed in a test tube and dissolved into 2 mL of DMSO. […] Then, 200 μL of 1 mmol/L substrate solution was added to initiate en enzymatic reaction under a temperature of 37° C.
(§4) Based on each inhibitory ratio, IC50 value was calculated.

[3] = molecular target: T3, Cathepsin G (Homo sapiens, UniProt P08311); assay: Measurement of cathepsin G inhibitory activity (Suc-Ala-Ala-Pro-Phe-pNA); format: biochemical; conditions: cathepsin G from human purulent sputum; 60 minutes at 37° C.
T3 construct: the product of Elastin Products Company, Inc. derived from human purulent sputum was used; purchased Elastin Products Company, Inc; host or cells: human purulent sputum
T3 sequence (P08311 21-244): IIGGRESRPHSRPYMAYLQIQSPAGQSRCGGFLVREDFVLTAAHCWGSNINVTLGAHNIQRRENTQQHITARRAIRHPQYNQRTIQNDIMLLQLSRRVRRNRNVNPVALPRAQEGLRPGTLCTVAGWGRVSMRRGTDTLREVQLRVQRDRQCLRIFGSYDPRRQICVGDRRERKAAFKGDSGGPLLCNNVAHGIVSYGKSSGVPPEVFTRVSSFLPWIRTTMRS
Protocol: as §1, §2, §3, §4

[4] = Stability in rat plasma; format: in vitro ADME; conditions: 10 μg/mL, 37° C., 60 minutes, HPLC
Protocol: Stability of the compounds of the invention in rat plasma was investigated.
Male SD rats (7-week-old) were anesthetized with ether under over-night fasting conditions and, after an abdominal part was incised, blood was collected from aorta abdominalis using a heparinized disposable plastic syringe. The blood was centrifuged under cooling to collect a supernatant plasma. The collected plasma was stored under freezing at −30° C. and was melted before use. After a test compound was dissolved in DMSO, the solution was added to 200 μL of the plasma so as to be 10 μg/mL, followed by incubation at 37° C. After 60 minutes, the mixture was acidified by adding 200 μL of 0.1 mol/L hydrochloric acid, and then extracted twice with 2 mL of ethyl acetate. The resulting organic layer was evaporated to dryness under a nitrogen gas flow and the residue was dissolved into 200 μL of acetonitrile to prepare a sample solution. On the other hand, the test compound was dissolved into 1% acetonitrile solution of DMSO so as to be 10 μg/mL as a control solution. The sample solution and control solution was investigated by high performance liquid chromatography (hereinafter, abbreviated as HPLC). Residual ratio (%) was determined as percentage by dividing the peak area of the sample solution by the peak area of the control solution.
Column: Waters Nova Pack C18 (inner diameter: 3.9 mm, length: 150 mm)
Mobile phase A: acetonitrile/water=10/90
Mobile phase B: acetonitrile/methanol=50/50
Eluent: Mobile phase A-mobile phase B (100/0 to 0/100, linear gradient, 50 minutes)
Amount of injection: 50 μL

[5] = molecular target: T4, Human chymase (Homo sapiens, UniProt P23946); assay: Measurement of inhibitory activity of human chymase (Ang I substrate, His-Leu/OPT fluorescence)
T4 sequence (P23946 22-247): T1 sequence (F6SAJ2 22-247 limits assumed) with S29F, K63E, Y159D, L201S, K221Q, G225A
Protocol: as §5, §6, §7

[6] = read-out: Human cymase IC50 value, human chymase from silkworms infected with baculovirus, 120 minutes at 37° C.

SMILES | IC50 [1] [nM] | IC50 [2] [nM] | IC50 [3] [nM] | IC50 [5] [nM] | other results
COC(=O)c1ccc(NS(=O)(=O)c2sc3ccc(Cl)cc3c2C)c(S(C)(=O)=O)c1 [Compound 1, Methyl 4-(5-chloro-3-methylbenzo[b]thiophene-2-sulfonylamino)-3-methanesulfonylbenzoate] | 50 | > 10000 | > 10000 | – | Residual ratio in rat plasma [4]: 93.9%; IC50 [5, 6]: 203 nM
Cc1c(S(=O)(=O)Nc2ccc(-c3nc(CO)co3)cc2S(C)(=O)=O)sc2ccc(F)cc12 [Compound 66] | – | – | – | 39 | melting point: 242 to 244 °C
Cc1c(S(=O)(=O)Nc2ccc(-c3ncco3)cc2S(C)(=O)=O)sc2ccc(F)cc12 [Compound 73, 5-fluoro-N-[2-methanesulfonyl-4-(oxazol-2-yl)phenyl]-3-methylbenzo[b]thiophene-2-sulfonamide] | – | – | – | 55 | –
Cc1c(S(=O)(=O)Nc2ccc(C(=O)OC(C)(C)C)cc2S(C)(=O)=O)sc2ccc(Cl)cc12 [Compound 3, tert-butyl 4-(5-chloro-3-methylbenzo[b]thiophene-2-sulfonylamino)-3-methanesulfonylbenzoate] | 178 | – | – | – | –
Cc1c(S(=O)(=O)Nc2ccc(-c3nc(CO)cs3)cc2S(C)(=O)=O)sc2ccc(F)cc12 [Compound 63, 5-fluoro-N-[4-(4-hydroxymethylthiazol-2-yl)-2-methanesulfonylphenyl]-3-methylbenzo[b]thiophene-2-sulfonamide] | – | – | – | 20 | –
CC(=O)c1ccc(NS(=O)(=O)c2sc3ccc(F)cc3c2C)c(S(C)(=O)=O)c1 [Compound 19, N-(4-acetyl-2-methanesulfonylphenyl)-5-fluoro-3-methylbenzo[b]thiophene-2-sulfonamide] | 20 | – | – | – | Residual ratio in rat plasma [4]: 96.2%; IC50 [5, 6]: 82 nM
CC(C)C[C@H](NC(=O)[C@@H](NC(=O)N[C@@H](Cc1ccccc1)C(=O)O)[C@@H]1CCN=C(N)N1)C(=O)N[C@H](C=O)Cc1ccccc1 [Chymostatin, reference compound] | – | – | 5.99 | – | –
COc1oc(-c2ccc(NS(=O)(=O)c3sc4ccc(F)cc4c3C)c(S(C)(=O)=O)c2)nc1C [Compound 56, 5-fluoro-N-[2-methanesulfonyl-4-(5-methoxy-4-methyloxazol-2-yl)phenyl]-3-methylbenzo[b]thiophene-2-sulfonamide] | – | – | – | 102 | –
Cc1c(S(=O)(=O)Nc2ccc(C(=O)NCC(=O)O)cc2S(C)(=O)=O)sc2ccc(Cl)cc12 (as salt: sodium) [Compound 52] | – | – | – | – | melting point: 290 to 292 °C
CCS(=O)(=O)c1cc(C(=O)OC)ccc1NS(=O)(=O)c1sc2ccc(Cl)cc2c1C [Compound 4, Methyl 4-(5-chloro-3-methylbenzo[b]thiophene-2-sulfonylamino)-3-ethanesulfonylbenzoate] | 111 | > 10000 | > 10000 | – | Residual ratio in rat plasma [4]: 93.5%
CC(=O)c1ccc(NS(=O)(=O)c2sc3ccc(Cl)cc3c2C)c(S(C)(=O)=O)c1 [Compound 11, N-(4-acetyl-2-methanesulfonylphenyl)-5-chloro-3-methylbenzo[b]thiophene-2-sulfonamide] | 100 | – | – | 271 | –

Now from value to compound, other results behind:

IC50 [1] [nM] | IC50 [2] [nM] | IC50 [3] [nM] | IC50 [5] [nM] | SMILES | other results
271 | – | – | – | Cc1c(S(=O)(=O)Nc2ccc(CO)cc2S(C)(=O)=O)sc2ccc(Cl)cc12 [Compound 13, 5-chloro-N-(4-hydroxymethyl-2-methanesulfonylphenyl)-3-methylbenzo[b]thiophene-2-sulfonamide] | –
39 | – | – | – | COC(=O)c1ccc(NS(=O)(=O)c2sc3ccccc3c2C)c(S(C)(=O)=O)c1 [Compound 20, methyl 4-(3-methylbenzo[b]thiophene-2-sulfonylamino)-3-methanesulfonylbenzoate] | IC50 [5, 6]: 305 nM
150 | > 1000 | > 1000 | – | COC(=O)c1cc(S(C)(=O)=O)c(NS(=O)(=O)c2sc3ccc(Cl)cc3c2C)cc1C [Compound 5, Methyl 4-(5-chloro-3-methylbenzo[b]thiophene-2-sulfonylamino)-5-methanesulfonyl-2-methylbenzoate] | Residual ratio in rat plasma [4]: 85.2%
75 | – | – | – | COC(=O)c1coc(-c2ccc(NS(=O)(=O)c3sc4ccc(Cl)cc4c3C)c(S(C)(=O)=O)c2)n1 [Compound 25, methyl 2-[4-(5-chloro-3-methylbenzo[b]thiophene-2-sulfonylamino)-3-methanesulfonylphenyl]oxazole-4-carboxylate] | melting point: 296 to 298 °C
157 | – | – | – | Cc1c(S(=O)(=O)Nc2ccc(C(=O)NCC(=O)O)cc2S(C)(=O)=O)sc2ccc(Cl)cc12 [Compound 52] | –
– | – | – | 101 | Cc1coc(-c2ccc(NS(=O)(=O)c3sc4ccc(F)cc4c3C)c(S(C)(=O)=O)c2)n1 [Compound 68] | melting point: 206 to 208 °C
– | – | – | 20 | CS/C(=C\c1ccc(NS(=O)(=O)c2sc3ccc(F)cc3c2C)c(S(C)(=O)=O)c1)[S+](C)[O-] (stereo not shown) [Compound 72, 5-fluoro-N-[2-methanesulfonyl-4-((E)-2-methanesulfinyl-2-methylsulfanylvinyl)phenyl]-3-methylbenzo[b]thiophene-2-sulfonamide] | –
278 | > 10000 | > 10000 | – | CCOC(=O)c1ccc(NS(=O)(=O)c2sc3ccc(Cl)cc3c2C)cc1 [Compound 14, ethyl 4-(5-chloro-3-methylbenzo[b]thiophene-2-sulfonylamino)benzoate] | Residual ratio in rat plasma [4]: 79.2%
42 | – | – | – | CCOC(=O)c1ccc(NS(=O)(=O)c2sc3ccc(Cl)cc3c2C)c(S(C)(=O)=O)c1 [Compound 2, Ethyl 4-(5-chloro-3-methylbenzo[b]thiophene-2-sulfonylamino)-3-methanesulfonylbenzoate] | –
10 | > 10000 | > 10000 | 150 | Cc1c(S(=O)(=O)Nc2ccc(-c3nc(C(=O)O)co3)cc2S(C)(=O)=O)sc2ccc(Cl)cc12 [Compound 26, 2-[4-(5-chloro-3-methylbenzo[b]thiophene-2-sulfonylamino)-3-methanesulfonylphenyl]oxazole-4-carboxylic acid] | Residual ratio in rat plasma [4]: 100%
6 | > 10000 | > 10000 | 45 | Cc1c(S(=O)(=O)Nc2ccc(-c3cnco3)cc2S(C)(=O)=O)sc2ccc(F)cc12 [Compound 48] | melting point: 199 to 201 °C
– | > 10000 | > 10000 | – | COC(=O)c1ccc(NS(=O)(=O)c2sc3ccc(Cl)cc3c2C)c([N+](=O)[O-])c1 [Compound 8, Methyl 4-(5-chloro-3-methylbenzo[b]thiophene-2-sulfonylamino)-3-nitrobenzoate] | –
